Like-named read-outs stand apart in the source and are kept apart here.

The subject of assay [1] is secretion of TNF-α in THP-1 cells. In words: TNF-α secretion in THP-1 cells (LPS-triggered). As to conditions: LPS 0.05 μg/ml, read-out: IC50 with respect to the secretion of TNF-α in THP-1 cells. The class given is cell-based, human. The protocol: TNF-α Secretion in THP-1 Cells
With the aid of this test, it is possible to test substances for their ability to inhibit secretion of TNF-α (tumour necrosis factor alpha) in THP-1 cells (human monocytic acute leukaemia cell line). TNF-α is a cytokine involved in inflammatory processes. In this test, TNF-α secretion is triggered by incubation with bacterial lipopolysaccharide (LPS).
THP-1 cells are kept in continuous suspension cell culture [RPMI 1460 medium with L-Glutamax (Gibco, Cat No. 61870-044) supplemented with foetal calf serum (FCS) 10% (Invitrogen, Cat No. 10082-147), 1% penicillin/streptomycin (Gibco BRL, Cat No. 15140-114)] and should not exceed a cell concentration of 1×10^6 cells/ml. The assay is carried out in cell culture medium (RPMI 1460 medium with L-Glutamax supplemented with FCS 10%).
In each case 2-2.5 μl of the cell suspension (corresponds to 4000 cells) per well were dispensed into a 384-well test plate (Greiner, Cat No. 784076), in each of which 40-50 nl substance had been dissolved in 100% DMSO. This was done using […] in the range from 20 μM to 0.073 nM for each substance. The cells were incubated at room temperature for 15 min. 2-2.5 μl of 0.1 μg/ml LPS (Sigma, Escherichia coli 055:B5, Cat. No. L5418) dissolved in cell culture medium (final concentration 0.05 μg/ml) were then dispensed into each well. As neutral control, cells were treated with 0.05 μg/ml LPS and 1% DMSO and, as inhibitor control, with 1% DMSO only.
The plates were centrifuged at 80 g for 30 s and incubated at 37° C., 5% CO2 and 95% atmospheric humidity for 17 h. The amount of TNF-α was determined using the TNF-alpha HTRF Detection Kit (Cisbio, Cat No. 62TNFPEB/C). To this end, 2 μl of the detection solution in each case, consisting of anti-TNF-α-XL665 conjugate and anti-TNF-α-cryptate conjugate dissolved in the reconstitution buffer in accordance with the manufacturer's instructions, were added for the HTRF (Homogeneous Time-Resolved Fluorescence) test. After the addition, the mixture was incubated either at room temperature for 3 h or at 4° C. overnight. The signals were then read at 620/665 nm using an HTRF-enabled measuring instrument such as the BMG PheraStar.
The activity of the substances is expressed as the ratio between neutral and inhibitor control in percent. The IC50 values were calculated using a 4-parameter fit.

Assay [2] deals with NF-kB activity in TMD-8-NF-kB-luc cells. Description: NF-kB reporter assay. The class given is cell-based, human. As to conditions: 6 h, One-Glo, read-out: IC50 with respect to the inhibition of NF-kB activity in TMD-8-NF-kB-luc cells. The protocol:
NF-kB Reporter Assay The effect of the inventive compounds of the general formula (I) on the NF-kB signalling pathway was examined in vitro in human DLBCL cells (see Table 4). 10 000 TMD-8-NF-kB-luc reporter cells at 30 μl/cavity in growth medium (RPMI (Biochrom: FG 1215), 20% FCS (Biochrom: S 0615)) were transferred into a 384-cavity plate (Perkin Elmer, white) and incubated at 37° C. overnight. After 24 h, the cells were treated with the test substances and incubated at 37° C. for 6 h. The test substances were added to the cells in a 7-stage, 3-fold dilution series using an HP D300 digital dispenser. As control, the cells were treated with the vehicle (DMSO). After 6 h, the cells were treated with 30 μl/well One-Glo solution (Promega, E6110) and incubated at room temperature for 10 min, and the luminescence was measured using a VICTOR V (Perkin Elmer) in order to determine the NF-kB reporter activity at the end of the treatment. The percentage effect of the NF-kB reporter activity and the IC50 derived therefrom were determined for each test substance with the aid of the values for an NF-kB pathway inhibitor (I-kappa B kinase inhibitor) (−)-7-[2-(cyclopropylmethoxy)-6-hydroxyphenyl]-5-[(3S)-3-piperidinyl]-1,4-dihydro-2H-pyrido[2,3-d][1,3]oxazin-2-one (CAS Number 600734-02-9; see WO 2003076447) (=maximum inhibition) and the DMSO control (=minimum inhibition). The IC50 values were calculated using a 4-parameter fit.

In the next assay the test system is human PBMCs. In words: In vitro LPS-induced cytokine production in human PBMCs. The class given is cell-based. As to conditions: 0.1 μg/ml LPS, 24 hours. The protocol: In Vitro LPS (Lipopolysaccharide)-Induced Cytokine Production in Human PBMCs (Peripheral Blood Mononuclear Cells)
The effect of the inventive compounds of the general formula (I) on induced cytokine production in human PBMCs was examined. Cytokine production was induced here by LPS, a TLR4 ligand, which leads to activation of the IRAK4-mediated signal path.
The human PBMCs were obtained from anti-coagulated human whole blood. To this end, 15 ml of Ficoll-Paque (Biochrom, Cat. No. L6115) were initially charged in Leucosep tubes and 20 ml of human blood were added. After centrifugation of the blood at 800 g for 15 min at room temperature, the plasma including the platelets was removed and discarded. The PBMCs were transferred into centrifugation tubes and made up with PBS (phosphate-buffered saline) (Gibco, Cat. No. 14190). The cell suspension was centrifuged at room temperature at 250 g for 10 min and the supernatant was discarded. The PBMCs were resuspended in complete medium (RPMI 1640, without L-glutamine (PAA, Cat. No. E15-039), 10% FCS; 50 U/ml penicillin, 50 μg/ml streptomycin (PAA, Cat. No. P11-010) and 1% L-glutamine (Sigma, Cat. No. G7513)).
The assay was also carried out in complete medium. The PBMCs were sown in 96-well plates at a cell density of 2.5×10^5 cells/well. The compounds according to the invention were subjected to serial dilution in a constant volume of 100% DMSO and used in the assay at 8 different concentrations in the range from 10 μM to 3 nM such that the final DMSO concentration was 0.4% DMSO. Prior to the actual stimulation, the cells were then pre-incubated therewith for 30 min. […] Cell viability was determined using the CellTiter-Glo luminescent assay (Promega, Cat. No. G7571 (G755/G756A)) in accordance with the manufacturer's instructions. The amount of secreted TNF-α in the cell culture supernatant was determined using the Human ProInflammatory 9-Plex Tissue Culture Kit (MSD, Cat. No. K15007B) in accordance with the instructions of the manufacturer. […]

Regarding `COc1cc2nn(C3CC[S+]([O-])CC3)cc2cc1NC(=O)c1cccc(C(F)(F)F)n1` (racemic) [Example 12, rac-N-[6-Methoxy-2-(1-oxidotetrahydro-2H-thiopyran-4-yl)-2H-indazol-5-yl]-6-(trifluoromethyl)pyridine-2-carboxamide], the IC50 in assay [1] (Homo sapiens, THP-1, 17 h) was determined as 100 nM; in assay [2] (Homo sapiens) it was 6810 nM.
On to `COc1cc2nn([C@@H]3C[C@@H]4C[C@H]3CN4C)cc2cc1NC(=O)c1cccc(C(F)(F)F)n1` (relative stereo) [Example 18, rel-N-{6-Methoxy-2-[(1S,4S,5R)-2-methyl-2-azabicyclo[2.2.1]hept-5-yl]-2H-indazol-5-yl}-6-(trifluoromethyl)pyridine-2-carboxamide], for which the IC50 in assay [1] (Homo sapiens, THP-1, 17 h) was determined as 60 nM; in assay [2] (Homo sapiens), 5520 nM.
With `COc1cc2nn(C3CCS(=N)(=O)CC3)cc2cc1NC(=O)c1cccc(C(F)(F)F)n1` (single isomer, unassigned) [Example 20, N-[2-(1-Imino-1-oxidohexahydro-1λ^4-thiopyran-4-yl)-6-methoxy-2H-indazol-5-yl]-6-(trifluoromethyl)pyridine-2-carboxamide], the IC50 in assay [1] (17 h) worked out at 60 nM; in assay [2], 21800 nM.
Take `COc1cc2nn(C3CCS(=N)(=O)CC3)cc2cc1NC(=O)c1cccc(C(F)(F)F)n1` (single isomer, unassigned) [Example 21, N-[2-(1-Imino-1-oxidohexahydro-1λ^4-thiopyran-4-yl)-6-methoxy-2H-indazol-5-yl]-6-(trifluoromethyl)pyridine-2-carboxamide]: the IC50 in assay [1] (17 h) stood at 170 nM; in assay [2], 5190 nM.
As to `COc1cc2nn(C3CCOCC3)cc2cc1NC(=O)c1cccc(C(F)(F)F)n1` [Example 1, N-[6-Methoxy-2-(tetrahydro-2H-pyran-4-yl)-2H-indazol-5-yl]-6-(trifluoromethyl)pyridine-2-carboxamide], the IC50 was 210 nM in assay [1] (Homo sapiens, THP-1, 17 h) and 15600 nM in assay [2] (Homo sapiens).
In the same order, the values of `COc1cc2nn(C3CCNCC3)cc2cc1NC(=O)c1cccc(C(F)(F)F)n1` [Example 2, N-[6-Methoxy-2-(piperidin-4-yl)-2H-indazol-5-yl]-6-(trifluoromethyl)pyridine-2-carboxamide] are 130 nM and 9450 nM.
Taken in the same sequence, the figures for `COc1cc2nn(C3CCN(C)CC3)cc2cc1NC(=O)c1cccc(C(F)(F)F)n1` [Example 4, N-[6-Methoxy-2-(1-methylpiperidin-4-yl)-2H-indazol-5-yl]-6-(trifluoromethyl)pyridine-2-carboxamide] were 140 nM and 7410 nM.
In the same order, the values of `COc1cc2nn(C3CCN(C(=O)CO)CC3)cc2cc1NC(=O)c1cccc(C(F)(F)F)n1` [Example 5, N-[2-(1-Glycoloylpiperidin-4-yl)-6-methoxy-2H-indazol-5-yl]-6-(trifluoromethyl)pyridine-2-carboxamide] are 210 nM and 5100 nM.
Turning to `COc1cc2nn(C3CCN(C4COC4)CC3)cc2cc1NC(=O)c1cccc(C(F)(F)F)n1` [Example 10, N-{6-Methoxy-2-[1-(oxetan-3-yl)piperidin-4-yl]-2H-indazol-5-yl}-6-(trifluoromethyl)pyridine-2-carboxamide], the 50% inhibitory concentration (IC50) was determined as 170 nM in assay [1] (Homo sapiens, THP-1, 17 h) and 28900 nM in assay [2] (Homo sapiens).
In the same order, the values of `COc1cc2nn(C3CCN(CCO)CC3)cc2cc1NC(=O)c1cccc(C(F)(F)F)n1` [Example 13, N-{2-[1-(2-Hydroxyethyl)piperidin-4-yl]-6-methoxy-2H-indazol-5-yl}-6-(trifluoromethyl)pyridine-2-carboxamide] are 140 nM and 5100 nM.
As to `COc1cc2nn(C3CCOCC3)cc2cc1NC(=O)c1cccc(C(F)F)n1` [Example 23, 6-(Difluoromethyl)-N-[6-methoxy-2-(tetrahydro-2H-pyran-4-yl)-2H-indazol-5-yl]pyridine-2-carboxamide], the half-maximal inhibitory concentration (IC50) is 230 nM in assay [1] (Homo sapiens, THP-1, 17 h) and 3840 nM in assay [2] (Homo sapiens).
Consider `COc1cc2nn(C3CCOCC3)cc2cc1NC(=O)c1cccc(N2CCOCC2)n1` [Example 24, N-[6-Methoxy-2-(tetrahydro-2H-pyran-4-yl)-2H-indazol-5-yl]-6-(morpholin-4-yl)pyridine-2-carboxamide], for which the IC50 in assay [1] (Homo sapiens, THP-1, 17 h) was found to be 170 nM; in assay [2] (Homo sapiens) it was 22600 nM.
Turning to `COc1cc2nn(C3CCOCC3)cc2cc1NC(=O)c1cccc(C(C)(C)O)n1` [Example 28, 6-(2-Hydroxypropan-2-yl)-N-[6-methoxy-2-(tetrahydro-2H-pyran-4-yl)-2H-indazol-5-yl]pyridine-2-carboxamide], the IC50 in assay [1] (Homo sapiens, THP-1, 17 h) is 410 nM; in assay [2] (Homo sapiens) it was 2680 nM.
Consider `CC(C)(O)c1cc2nn(C3CCS(=O)(=O)CC3)cc2cc1NC(=O)c1cccc(C(F)(F)F)n1` [Example 44, N-[2-(1,1-Dioxidotetrahydro-2H-thiopyran-4-yl)-6-(2-hydroxypropan-2-yl)-2H-indazol-5-yl]-6-(trifluoromethyl)pyridine-2-carboxamide], for which the IC50 was 170 nM in assay [1] (Homo sapiens, THP-1, 17 h) and 14600 nM in assay [2] (Homo sapiens). Further, the “activity (secreted TNF-α, LPS-induced cytokine production in human PBMCs)” value with human PBMCs was not above 1 µM.
Turning to `CC(C)(O)c1cc2nn(C3CCNCC3)cc2cc1NC(=O)c1cccc(C(F)(F)F)n1` [Example 46, N-[6-(2-Hydroxypropan-2-yl)-2-(piperidin-4-yl)-2H-indazol-5-yl]-6-(trifluoromethyl)pyridine-2-carboxamide], the IC50 in assay [1] (Homo sapiens, THP-1, 17 h) is 90 nM; in assay [2] (Homo sapiens), 13400 nM. The “activity (secreted TNF-α, LPS-induced cytokine production in human PBMCs)” value in the assay with human PBMCs is not above 1 µM.

The values are drawn from patent US10435396B2, “2-substituted indazoles, methods for producing same, pharmaceutical preparations that contain same, and use of same to produce drugs” (Bayer Pharma Aktiengesellschaft, priority 2016, dated 2019).
